# From patent US11427605B2, “Crystalline forms of 5-chloro-N4-[-2-(dimethylphosphoryl) phenyl]-N2-{2-methoxy-4-[4-(4-methylpiperazin-1-yl) piperidin-1-yl] phenyl} pyrimidine-2,4-diamine” (ARIAD Pharmaceuticals, Inc., priority 2014, dated 2022)
# Like-named read-outs stand apart in the source and are kept apart here.
# Columns and labels:
# [1] = Dissolution rate from a powdered sample in water; format: physicochemical; settings: powder, 37° C.
# Description: For determining the dissolution rate from a powdered sample, approximately 5 mg of brigatinib (Form A or B) was weighed into a 5 mL dissolution vial and the dissolution probe was inserted into the vial. Subsequently, 4 mL of water was added at the same time the measurement was initiated. The concentration was recorded for 20 h.
# For measuring the dissolution rate from powder, the test was only performed in water for Forms A and B at 37° C., as the solubilities of Forms A and B were […] enough to permit detection.
# Variable humidity XRPD = format: physicochemical
# Description: The temperature variation rate was 10° C./min.
# The relative humidity was increased from the starting amount, brought up to the maximum, then dried back to the minimum value. The data collection time was 41 min at each step, time starting after equilibration of the relative humidity.
# The peaks shifts were reversible at RH of about 30%. A sample of Form A was then exposed to 80% RH for 15 h. The peaks shifts had occurred after 90 min, and the extent of the shifts remained constant throughout the exposure at 80% RH for 15 h. Upon return to 10% RH, the peaks shifted to their original position. To investigate the amount of water adsorbed, a new sample of Form A was exposed for 2 h at 80% and a TGMS of this sample was measured.
# For Form B, the relative humidity was measured at 30° C. The RH % values measured were 10, 30, 50, 60, 65, 70, 75, and 80%. […] At 80% RH the conversion to Form C was completed. Upon desorption, Form C dehydrates to Form B, starting at about 30% RH. At 10% RH the conversion to Form B was completed.
# For Form C, a hydrate, the relative humidity was measured at 30° C. The experiment was performed starting at the maximum RH and dehydrated, then rehydrated back up to the maximum value. The RH % values measured were 10, 15, 20, 25, 30, 35, 40, 60, and 80%. Upon desorption, Form C dehydrated to Form B, starting at about 25% RH. At 10% RH, the conversion to Form B was complete. Upon sorption, Form B converted to Form C, starting at about 60% RH. At 80% RH the conversion to Form C was complete. The results are consistent with the corresponding experiments of Form B.
# For Form D, a hydrate, the relative humidity was measured at 30° C. The experiment was performed starting at the maximum RH and dehydrated, then rehydrated back up to the maximum value. The RH % values measured were 10, 15, 20, 25, 30, 35, 40, 60, and 80%. […] Form C dehydrated to Form B, starting at about 20% RH. At 10% RH, the conversion to Form B was complete. Upon sorption, Form B converted to Form C, starting at about 40% RH. At 80% RH, the conversion to Form C was complete.
# physchem [2] = settings: thermodynamic from solid
# Compression tests = format: physicochemical; settings: 3 and 6 ton/cm^2 for one minute
# Description: Compression tests were performed on brigatinib Form A in order to determine whether pressure-induced phase transformations or loss of crystallinity occurred. The press used was an Atlas Manual 25 Ton Hydraulic Press (from SPECAC). Experiments were carried out at 3 and 6 ton/cm^2 for one minute in each case.
# [3] = for solid form (XRPD, analyzed wet): slurry in Water, 25° C.
# Description: In a second set of slurry experiments, the same amounts of Form A and Form B were weighed into 1.8 mL vials, and charged with a stirring bar. After addition of the solvent, the slurries were placed at 25° C. and 50° C., under stirring. Material from the slurries was sampled at the time points of 2, 4 and 14 days (sampling from the same vial per solvent and per temperature). These materials were analyzed wet by XRPD and digital imaging.
# [4] = 24 h
# Description: (§1) For each medium, a standard 1.8 mL screw cap vial was charged with circa 40 mg of the starting material, 400 μl of solvent and a magnetic stirring bar (in the cases of chloroform and dichloromethane 200 μl of solvent were used). The vials were subsequently closed and equilibrated at the corresponding temperature for 24 h while stirring. The liquid part was retrieved with a syringe and filtered (0.5 micron filter); the isolated mother liquors were diluted to two dilutions selected according to the calibration curve. Quantities of the API in the diluted solutions were determined via HPLC analysis (DAD). […] Subsequently, the separated solids were measured wet by XRPD to confirm the solid form of which the solubility was measured.
# [5] = Dynamic vapor sorption (DVS); format: physicochemical; settings: for Hygroscopicity: general statement
# Description: In a […] vapor sorption (DVS) experiment with Form A, the sample was first dried at 0% RH for 6 hours. Then, the relative humidity was cycled from 5% to 95% RH (sorption), then to 5% RH (desorption) at a constant temperature of 25° C., with a hold time of 60 minutes per step.
# In three DVS experiments, the relative humidity was varied as follows:
# Expt. 4: 0% for 6 h→5% for 1 h→15% for 1 h→25-85% gradient over 2 h→95 for 5 h RH
# [6] = Intrinsic dissolution rate (IDR); format: physicochemical
# Description: For measuring the intrinsic dissolution rate (IDR), the starting material was tableted using a mini-IDR compression system (pION/Heath Scientific). For preparation of the tablets, approximately 11 mg of material was pressed in the cylindrical hole of a passivated stainless steel die, to a uniform, flat surface, with an exposed area of 0.072 cm^2. The pressure applied was approximately 50 bar for 3-5 min. The sample die was inserted in a cylindrical Teflon rotating disk carrier containing an embedded magnetic stirring bar at its base. The die/stirrer assembly was placed in a flat bottomed glass vial, ready for dissolution analysis.
# The dissolution rate was measured in 20 mL of solvent (medium) and the path length of the UV meter was 2 mm. Applied stirring speed during measurement was 100 rpm. Measurements were performed at 20° C. and 37° C.
# In the first series, the IDR of Forms A and B were determined in monoplicate. […] In FIGS. 30-37, the IDRs are plotted for comparison between the forms and the same medium or between various media and the same form. The IDR of each of Forms A and B in the various media increases with increasingly acidic media (see FIGS. 34-37).
# In several cases, the results were counter-intuitive. […] The results of these additional experiments are plotted in FIGS. 38-42.
# physchem [7] = settings: thermodynamic from solid; for solubility at 24 h: Solub
# Description: as §1
# [8] = ground for 5 hours
# Description: Grinding experiments were performed to obtain amorphous brigatinib. […] In a mechanical stress test via grinding, a sample of Form A was ground for 2, 3, 4 and 5 hours. Recovered solids were analyzed by XRPD and HPLC.
# Grinding. Two grinding experiments were performed on samples of Form A with two different durations (30 and 60 min) at a frequency of 30 Hz. […] Mechanical stress via grinding experiments were also performed, with grinding times of 2, 3, 4, and 5 hours.
# [9] = not given; remark: listed apart in the source
# [10] = 37 °C, pH 1, simulated gastric fluid
# [11] = 30° C., sample started as the labelled form
# [12] = VT-XRPD, sample started as the labelled form
structure (smiles),measurement,setting,value
"COc1cc(N2CCC(N3CCN(C)CC3)CC2)ccc1Nc1ncc(Cl)c(Nc2ccccc2P(C)(C)=O)n1 [Form A, brigatinib]",Concentration at 10 min,[1],70 µg/mL
same,Concentration at 20 h,[1],140 µg/mL
same,Phase transition with humidity (VH-XRPD),Variable humidity XRPD; 30 and 60° C.,did not show any phase transition
same,Mass loss by TGMS after humidity exposure (water adsorbed),Variable humidity XRPD; exposed for 2 h at 80% RH,0.35%
same,Water molecules adsorbed after humidity exposure,Variable humidity XRPD; exposed for 2 h at 80% RH,0.1 water molecules
same,solubility,"physchem [2]; pH 1.7, simulated gastric fluid",177 mg/mL
same,solubility,"physchem [2]; pH 2.4, aqueous buffer",329 mg/mL
same,solubility,"physchem [2]; pH 3.6, aqueous buffer",173 mg/mL
same,solubility,"physchem [2]; pH 6.2, aqueous buffer",8 mg/mL
same,solubility,"physchem [2]; pH 7.2, aqueous buffer",11 mg/mL
same,Phase transformation under pressure (XRPD),Compression tests,no phase transitions or peak shifts
same,Purity by HPLC after compression,Compression tests,comparable to that of the starting material
same,Phase transformation on heating (VT-XRPD),25 to 200° C.,did not reveal any phase transformation
same,"solid form (XRPD, analyzed wet)",[3]; 2 Days,A + D
same,"solid form (XRPD, analyzed wet)",[3]; 4 days,A + D
same,Solub,[4],0.1 ± 0.0 mg/mL
same,Hygroscopicity (DVS),"[5]; 5% to 95% RH, then to 5% RH, 25° C., 60 minutes per step",not hygroscopic
same,Hygroscopicity,[5],not hygroscopic
same,Amount that could be dissolved in the stomach together with a 200 ml glass of water,[6]; numbers are only indicative,about 50 mg
same,Concentration reached in IDR measurement,"[6]; pH 1.0 and SGF, within 5 min",~250 µg/mL
same,Solid form stability when slurried (IDR experiments),"[6]; water, SGF, and pH 1.0 aqueous buffer",remains stable
same,solubility at 24 h,"physchem [7]; 25 °C, pH 1, simulated gastric fluid",60.4 ± 2.9 mg/mL
same,solubility at 24 h,"physchem [7]; 25 °C, pH 4.5, aqueous buffer",24.4 ± 1.2 mg/mL
same,solubility at 24 h,"physchem [7]; 25 °C, pH 6.8, aqueous buffer",8.6 ± 1.4 mg/mL
same,solubility at 24 h,"physchem [7]; 25 °C, water",0.11 mg/mL
same,solubility at 24 h,physchem [7]; [10],70.6 ± 1.5 mg/mL
same,solubility,physchem [7]; [10],70 mg/mL
same,solubility at 24 h,"physchem [7]; 37 °C, pH 4.5, aqueous buffer",26 mg/mL
same,solubility,"physchem [7]; 37 °C, pH 4.5, aqueous buffer",26 mg/mL
same,solubility,"physchem [7]; 37 °C, pH 6.5, aqueous buffer",6 mg/mL
same,solubility at 24 h,"physchem [7]; 37 °C, pH 6.8, aqueous buffer",6.2 ± 0.1 mg/mL
same,solubility at 24 h,"physchem [7]; 37 °C, simulated gastric fluid",51.7 ± 0.6 mg/mL
same,solubility,physchem [7]; simulated gastric fluid,52 mg/mL
same,Solid state after grinding (XRPD),[8],almost completely amorphous
"COc1cc(N2CCC(N3CCN(C)CC3)CC2)ccc1Nc1ncc(Cl)c(Nc2ccccc2P(C)(C)=O)n1 [Form B, brigatinib]",Humidity level at which Form B converts to the hydrated Forms C and D,"Variable humidity XRPD; 30° C., reversible",above 60 % RH
same,RH at which Form B starts to convert to hydrated Form C (sorption),Variable humidity XRPD; [11],about 65 % RH
same,RH at which Form C starts to dehydrate to Form B (desorption),Variable humidity XRPD; [11],about 30 % RH
same,RH at which conversion to Form B was complete (desorption),Variable humidity XRPD; [11],10 % RH
same,RH at which conversion to Form C was complete (sorption),Variable humidity XRPD; [11],80 % RH
same,Temperature at which (partial) conversion to Form A was observed,[12],150 °C
same,Temperature at which conversion to Form A was complete,[12],155 °C
same,Temperature of solid-solid transition to Form A,"ambient humidity, increasing temperature, not reversible",about 150 °C
same,"Solid form conversion in slurry with Form A (XRPD, wet)","[3]; all organic solvents and water at 37° C., sampled at 2, 4 and 14 days",converted to Form A
same,"Solid form conversion in slurry with Form A (XRPD, wet)","[3]; water at 25° C. (aqueous environment), 2 and 4 days",converted to Form D
same,Solid form after DVS cycle (XRPD),[5]; Expt. 1 (5%→95%→65% RH),hydrated Form C
same,Water adsorbed during sorption,"[5]; Expt. 1 (5%→95%→65% RH), between 45-95% RH",2.26 molecules of water
same,Change in mass during desorption after about 75% RH,[5]; Expt. 2,about 5.2%
same,Gained mass during desorption until about 25% RH,[5]; Expt. 2,4.2%
same,Mass increase at 85% RH during desorption,[5]; Expt. 2,17.4%
same,Maximum change in mass as water molecules,[5]; Expt. 2,5.6 water molecules
same,Water molecules during desorption after about 75% RH,[5]; Expt. 2,about 1.7 water molecules
same,Water molecules during desorption until about 25% RH,[5]; Expt. 2,1.4 water molecules
same,Solid form after DVS cycle (XRPD),[5]; Expt. 2 (5%→95%→5% RH),mixture of Forms B and C
same,"Mass change, first sorption step","[5]; Expt. 2 (5%→95%→5% RH), between 45-85% RH",6.45%
same,"Water molecules, first sorption step","[5]; Expt. 2, between 45-85% RH",2.1 water molecules
same,"Total change in mass, second sorption step","[5]; Expt. 2, between 85% and 95% RH",16.7%
same,Total change in mass at 95% RH,[5]; Expt. 3,15.88%
same,Total change in mass at 95% RH as water molecules,[5]; Expt. 3,5.15 water molecules
same,Solid form after DVS cycle (XRPD),[5]; Expt. 3 (5%→95% RH),Forms B+C
same,"Change in mass, first step","[5]; Expt. 3 (5%→95% RH), between 45-85% RH",5.59%
same,"Water molecules, first step","[5]; Expt. 3, between 45-85% RH",1.8 water molecules
same,Maximum change in mass as water molecules,[5]; Expt. 4,7.2 water molecules
same,Solid form after DVS cycle (XRPD),[5]; Expt. 4,Forms C+D
same,Maximum change in mass,[5]; Expt. 4 (longer equilibration; up to 95% RH for 5 h),22.2%
same,Hygroscopicity,[5],hygroscopic
same,Solid form after humidity exposure,[9]; 90% RH for one day,converted to a mixture of Forms C and D
same,"Solid form conversion on slurrying (XRPD, wet)","[9]; room temperature, water, HCl buffer of pH 1.0",converted to the heptahydrate Form D after 45 min
